# Data published in patent publication US20260285850A1, “SUBSTITUTED OXAZOLIDINONES AND IMIDAZOLINONES AS HERBICIDES” (FMC CORPORATION, priority 2023, published 2026).
# Assays:
# Type in all cases: in vivo
# [1] = system: green foxtail (Setaria viridis); experiment: Test A preemergence soil spray, visual injury rating 0-100; details: 10 days, 0 = no effect, 100 = complete control
# Procedure, shortened: (§1)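 Greenhouse test: loam/sand pots received a surfactant-containing formulation, as a preemergence directed soil spray or a postemergence spray on young plants. Injury was judged visually at day 10 relative to untreated controls.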
# [2] = system: barnyardgrass (Echinochloa crus-galli); experiment: as above; details: 10 days, 0 = no effect, 100 = complete control
# Procedure, shortened: as §1
# [3] = system: ryegrass, Italian (italian ryegrass, Lolium multiflorum); experiment: as above; details: 10 days, 0 = no effect, 100 = complete control
# Procedure, shortened: as §1
# [4] = system: ragweed (common ragweed, Ambrosia artemisiifolia); experiment: as above; details: 10 days, 0 = no effect, 100 = complete control
# Procedure, shortened: as §1
# [5] = system: blackgrass (Alopecurus myosuroides); experiment: as above; details: 10 days, 0 = no effect, 100 = complete control
# Procedure, shortened: as §1
# soybean (Glycine max) [6] = experiment: as above; details: 10 days, 0 = no effect, 100 = complete control
# Procedure, shortened: as §1
# [7] = system: oat, wild (wild oat, Avena fatua); experiment: as above; details: 10 days, 0 = no effect, 100 = complete control
# Procedure, shortened: as §1
# corn (Zea mays) [8] = experiment: as above; details: 10 days, 0 = no effect, 100 = complete control
# Procedure, shortened: as §1
# [9] = system: palmer (palmer amaranth, palmer pigweed, Amaranthus palmeri); experiment: as above; details: 10 days, 0 = no effect, 100 = complete control
# Procedure, shortened: as §1
# kochia (Bassia scoparia) [10] = experiment: as above; details: 10 days, 0 = no effect, 100 = complete control
# Procedure, shortened: as §1
# [11] = system: wheat (Triticum aestivum); experiment: as above; details: 10 days, 0 = no effect, 100 = complete control
# Procedure, shortened: as §1
# [12] = system: sedge, umbrella (small-flower umbrella sedge, Cyperus difformis); experiment: Test B flooded paddy test, visual plant response rating 0-100; details: 250 g ai/ha, Flood, applied to paddy water, evaluated after 13 days
# Procedure, shortened: (§2)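 Plants were grown to the 2-leaf stage, then pots were flooded to 3 cm above the soil and test compounds were applied directly into the paddy water. Water depth was held there throughout; after 13 days in a greenhouse, injury was scored visually against untreated controls.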
# [13] = system: ducksalad (Heteranthera limosa); experiment: as above; details: 250 g ai/ha, Flood, applied to paddy water, evaluated after 13 days
# Procedure, shortened: as §2
# rice (Oryza sativa) = experiment: as above; details: 250 g ai/ha, Flood, applied to paddy water, evaluated after 13 days
# Procedure, shortened: as §2
# [14] = system: barnyardgrass (Echinochloa crusgalli); experiment: as above; details: 250 g ai/ha, Flood, applied to paddy water, evaluated after 13 days
# Procedure, shortened: as §2
# [15] = system: green foxtail (Setaria viridis); experiment: Test A postemergence application, visual injury rating 0-100; details: 10 days
# Procedure, shortened: as §1
# [16] = system: barnyardgrass (Echinochloa crus-galli); experiment: as above; details: 10 days
# Procedure, shortened: as §1
# [17] = system: ryegrass, Italian (italian ryegrass, Lolium multiflorum); experiment: as above; details: 10 days
# Procedure, shortened: as §1
# [18] = system: ragweed (common ragweed, Ambrosia artemisiifolia); experiment: as above; details: 10 days
# Procedure, shortened: as §1
# [19] = system: blackgrass (Alopecurus myosuroides); experiment: as above; details: 10 days
# Procedure, shortened: as §1
# soybean (Glycine max) [20] = experiment: as above; details: 10 days
# Procedure, shortened: as §1
# [21] = system: oat, wild (wild oat, Avena fatua); experiment: as above; details: 10 days
# Procedure, shortened: as §1
# corn (Zea mays) [22] = experiment: as above; details: 10 days
# Procedure, shortened: as §1
# [23] = system: palmer (palmer amaranth, palmer pigweed, Amaranthus palmeri); experiment: as above; details: 10 days
# Procedure, shortened: as §1
# kochia (Bassia scoparia) [24] = experiment: as above; details: 10 days
# Procedure, shortened: as §1
# [25] = system: wheat (Triticum aestivum); experiment: as above; details: 10 days
# Procedure, shortened: as §1
# [26] = system: horseweed (Erigeron canadensis); experiment: as above; details: 10 days
# Procedure, shortened: as §1
# [27] = 31 g ai/ha, postemergence, 0 = no effect, 100 = complete control
# [28] = Postemergence, 125 g ai/ha, 0 is no effect, 100 is complete control
smiles,measurement,setting,value
"CC1(C(=O)NC2CC=C(C(=O)O)C2)CN(c2cc(F)cc(F)c2)C(=O)O1 [Compound 38, (4S)-4-[[[3-(3,5-difluorophenyl)-5-methyl-2-oxo-5-oxazolidinyl]carbonyl]amino]-1-cyclopentene-1-carboxylate acid]","Foxtail, Green plant response rating (0-100)",[1]; 31 g ai/ha,0
same,"Foxtail, Green plant response rating (0 to 100 scale)",[1]; 125 g ai/ha,20
same,Barnyardgrass plant response rating (0-100),[2]; 31 g ai/ha,0
same,Barnyardgrass plant response rating (0 to 100 scale),[2]; 125 g ai/ha,40
same,"Ryegrass, Italian plant response rating (0-100)",[3]; 31 g ai/ha,0
same,"Ryegrass, Italian plant response rating (0 to 100 scale)",[3]; 125 g ai/ha,90
same,Ragweed plant response rating (0-100),[4]; 31 g ai/ha,0
same,Ragweed plant response rating (0 to 100 scale),[4]; 125 g ai/ha,0
same,Blackgrass plant response rating (0-100),[5]; 31 g ai/ha,0
same,Blackgrass plant response rating (0 to 100 scale),[5]; 125 g ai/ha,50
same,Soybean plant response rating (0-100),soybean (Glycine max) [6]; 31 g ai/ha,10
same,Soybean plant response rating (0 to 100 scale),soybean (Glycine max) [6]; 125 g ai/ha,80
same,"Oat, Wild plant response rating (0-100)",[7]; 31 g ai/ha,0
same,"Oat, Wild plant response rating (0 to 100 scale)",[7]; 125 g ai/ha,60
same,Corn plant response rating (0-100),corn (Zea mays) [8]; 31 g ai/ha,0
same,Corn plant response rating (0 to 100 scale),corn (Zea mays) [8]; 125 g ai/ha,90
same,"Amaranth, Palmer plant response rating (0-100)",[9]; 31 g ai/ha,0
same,"Amaranth, Palmer plant response rating (0 to 100 scale)",[9]; 125 g ai/ha,70
same,Kochia plant response rating (0-100),kochia (Bassia scoparia) [10]; 31 g ai/ha,0
same,Kochia plant response rating (0 to 100 scale),kochia (Bassia scoparia) [10]; 125 g ai/ha,20
same,Wheat plant response rating (0-100),[11]; 31 g ai/ha,40
same,Wheat plant response rating (0 to 100 scale),[11]; 125 g ai/ha,90
same,"Plant response rating, Sedge, Umbrella (0 to 100 scale, 0 is no effect and 100 is complete control)",[12],95
same,"Plant response rating, Ducksalad (0 to 100 scale, 0 is no effect and 100 is complete control)",[13],55
same,"Plant response rating, Rice (0 to 100 scale, 0 is no effect and 100 is complete control)",rice (Oryza sativa),70
same,"Plant response rating, Barnyardgrass (0 to 100 scale, 0 is no effect and 100 is complete control)",[14],55
same,"Foxtail, Green plant response rating (0-100)",[15]; [27],90
same,"Foxtail, Green plant response rating (0 to 100 scale)",[15]; [28],90
same,Barnyardgrass plant response rating (0-100),[16]; [27],90
same,Barnyardgrass plant response rating (0 to 100 scale),[16]; [28],100
same,"Ryegrass, Italian plant response rating (0-100)",[17]; [27],70
same,"Ryegrass, Italian plant response rating (0 to 100 scale)",[17]; [28],90
same,Ragweed plant response rating (0-100),[18]; [27],20
same,Ragweed plant response rating (0 to 100 scale),[18]; [28],50
same,Blackgrass plant response rating (0-100),[19]; [27],40
same,Blackgrass plant response rating (0 to 100 scale),[19]; [28],90
same,Soybean plant response rating (0-100),soybean (Glycine max) [20]; [27],60
same,Soybean plant response rating (0 to 100 scale),soybean (Glycine max) [20]; [28],80
same,"Oat, Wild plant response rating (0-100)",[21]; [27],90
same,"Oat, Wild plant response rating (0 to 100 scale)",[21]; [28],90
same,Corn plant response rating (0-100),corn (Zea mays) [22]; [27],90
same,Corn plant response rating (0 to 100 scale),corn (Zea mays) [22]; [28],100
same,"Amaranth, Palmer plant response rating (0-100)",[23]; [27],40
same,"Amaranth, Palmer / Pigweed, Palmer plant response rating (0 to 100 scale)",[23]; [28],100
same,Kochia plant response rating (0-100),kochia (Bassia scoparia) [24]; [27],80
same,Kochia plant response rating (0 to 100 scale),kochia (Bassia scoparia) [24]; [28],80
same,Wheat plant response rating (0-100),[25]; [27],90
same,Wheat plant response rating (0 to 100 scale),[25]; [28],90
same,Horseweed plant response rating (0-100),[26]; [27],30
same,Horseweed plant response rating (0 to 100 scale),[26]; [28],70
